Consider 10 molecules from patent publication US4521537A, “Spiro[2H-1,4-benzodioxepin-3(5H)4'-piperidine and -3'-pyrrolidine] compounds and their use as antihypertensive agents” (Hoechst-Roussel Pharmaceuticals Incorporated, priority 1984, dated 1985).

Molecules are shown by their SMILES. Counter-ions that a name gives are not always drawn. Like-named read-outs stand apart in the source and are kept apart here.

The test system of test [1] is spontaneous hypertensive rat. Put plainly: antihypertensive activity, spontaneous hypertensive rat (SHR) test, indirect tail cuff method. It is filed as in vivo. How it is done: Compounds of this invention are useful as antihypertensive agents due to their ability to depress blood pressure in mammals. Antihypertensive activity is measured in the spontaneous hypertensive rat by the indirect tail cuff method described by A. Schwartz, Ed., Methods in Pharmacology, Vol. page 135, Appleton Century Crafts, New York (1971). […] The drop in blood pressure is measured on the third day following administration. The antihypertensive activity is expressed as mm Hg decrease in mean arterial blood pressure.

For another test, the system named is mice. Description: phenylquinone-induced writhing test in mice (PQW), analgesia. The format is in vivo, male, CD-1 mice. The following applies: Mus musculus, read-out: PQW % (percent inhibition of writhing). The method, then: Compounds of this invention produce analgesia when administered to mammals. A phenylquinone-induced writhing test in mice (PQW) was used as an assay to detect analgesia. The procedure employed was a modification of Siegmund, E., Cadmus, R. and Lu, G: Proc. Soc. Exptl. Bio. Med., 95: 729 (1957). 12.5 mg of phenyl-p-benzoquinone were dissolved in 5 ml of 95% ethanol and q.s. to 100 ml with distilled water and administered to mice (10 ml/kg, i.p.). This produces a characteristic "writhe" which is defined as an inward rotation of one or more feet with twisting and turning of the trunk, drawing in of the abdominal wall, lordosis and arching of the back.
A total of 28 male, CD-1 mice (18 to 30 grams) were employed for a time response. Animals recived food and water ad libitum. Drugs to be tested were prepared with distilled water and, if insoluble, one drop of a suitable surfactant was added.
Twenty animals (5/group) were administered the drug 15, 30, 45 and 60 minutes prior to phenylquinone injections. Control animals (2/group) received an equal amount of vehicle. After the administration of phenylquinone the mice were placed separately into one-liter beakers and 5 minutes were allowed to lapse. The mice were then observed for a period of 10 minutes and the number of writhes were recorded for each animal. The formula for computing percent inhibition is: [formula]
The time period with the greatest percent of inhibition is considered the peak time.
A dose range is run in the same fashion as a time response except 10 animals per group were tested at the peak time of drug activity. Fifty animals, 4 drug groups, and a vehicle control were employed. Animals were dosed and tested in a randomized manner. An estimated ED50 was calculated by a computer linear regression analysis.

Take `CC1Oc2ccc(Cl)cc2COC12CCN(CCOC(c1ccc(F)cc1)c1ccc(F)cc1)CC2` (centres unmarked) [Example 85, 7-Chloro-1'-[2-(bis(4-fluorophenyl)methoxy)ethyl]-2-methylspiro[2H-1,4-benzodioxepin-3(5H)4'-piperidine]hydrochloride]: in test [1] (Table III, 50 mg/kg PO), the “SHR mm Hg (decrease in mean arterial blood pressure)” value is recorded as -46 mm Hg. For the same molecule, in the test on mice (sc), the change in vivo at 20 mg/kg is -44%.
With `COc1ccc(OCC(O)CN2CCC3(CC2)OCc2cc(Cl)ccc2OC3C)cc1` (centres unmarked) [Example 92, 7-Chloro-2-methyl-1'-[2-hydroxy-3-(4-methoxyphenoxy)propyl]spiro[2H-1,4-benzodioxepin-3(5H)4'-piperidine]hydrochloride], the “SHR mm Hg (decrease in mean arterial blood pressure)” value in test [1] (Table III, 50 mg/kg PO) is reported as -66 mm Hg. Besides, the change in vivo at 20 mg/kg in the test on mice (Table III, 20 mg/kg SC) was -47%.
For `CC1Oc2ccccc2COC12CCN(CCO)CC2` (centres unmarked) [Example 48, 1'-(2-Hydroxyethyl)-2-methylspiro[2H-1,4-benzodioxepin-3(5H)4'-piperidine]], the “SHR mm Hg (decrease in mean arterial blood pressure)” value in test [1] (Table II, 50 mg/kg PO) is given as -23 mm Hg. In addition, the change in vivo at 20 mg/kg with mice (Table II, 20 mg/kg SC) is -39%.
In the case of `CCNC(=O)N1CCC2(CC1)OCc1ccccc1OC2C` (centres unmarked) [Example 71, N-Ethyl-2-methylspiro[2H-1,4-benzodioxepin-3(5H)4'-piperidine]-1'-carboxamide], the “SHR mm Hg (decrease in mean arterial blood pressure)” value in test [1] (Table III, 50 mg/kg PO) was -67 mm Hg. For the same molecule, the change in vivo at 20 mg/kg in the test with mice (Table III, 20 mg/kg SC) is -46%.
Consider `CC1Oc2ccccc2COC12CCN(CCC#N)CC2` (centres unmarked) [Example 67, 1'-(2-Cyanoethyl)-2-methylspiro[2H-1,4-benzodioxepin-3(5H)4'-piperidine]oxalate], for which, in test [1] (Table II, 50 mg/kg PO), the “SHR mm Hg (decrease in mean arterial blood pressure)” value is listed as -30 mm Hg. Besides, the change in vivo at 20 mg/kg in the test with mice (Table II, 20 mg/kg SC) is -40%.
Consider `CC1Oc2ccc(Cl)cc2COC12CCN(CCCCC(c1ccc(F)cc1)c1ccc(F)cc1)CC2` (centres unmarked) [Example 86, 7-Chloro-2-methyl-1'-[5,5-bis(4-fluorophenyl)pentyl]-spiro[2H-1,4-benzodioxepin-3(5H)4'-piperidine]hydrochloride], for which the “SHR mm Hg (decrease in mean arterial blood pressure)” value in test [1] (Table III, 50 mg/kg PO) is listed as -42 mm Hg. In the test on mice (Table III, 20 mg/kg SC), the change in vivo at 20 mg/kg was -25%.
For `CC1Oc2ccc(Cl)cc2COC12CCN(CCCC(c1cccc(F)c1)c1cccc(F)c1)CC2` (centres unmarked) [Example 79, 1'-[4,4-Bis(3-fluorophenyl)butyl]-7-chloro-2-methylspiro[2H-1,4-benzodioxepin-3(5H)4'-piperidine]hydrochloride], the “SHR mm Hg (decrease in mean arterial blood pressure)” value in test [1] (Table III, 0.3 mg/kg PO) is given as -27 mm Hg. Moreover, in the test with mice (Table III, 20 mg/kg SC), the change in vivo at 20 mg/kg is -91%.
With `CC1Oc2ccccc2COC12CCN(CCc1ccc([N+](=O)[O-])cc1)CC2` (centres unmarked) [Example 56, 1'-[2-(4-Nitrophenyl)ethyl]2-methylspiro[2H-1,4-benzodioxepin-3(5H)4'piperidine]oxalate], in test [1] (Table II, 50 mg/kg PO), the “SHR mm Hg (decrease in mean arterial blood pressure)” value is on record as -17 mm Hg. Moreover, the change in vivo at 20 mg/kg in the test on mice (Table II, 20 mg/kg SC) was -30%.
Take `CC1Oc2ccccc2COC12CCN(CC(O)COc1ccccc1)CC2` (centres unmarked) [Example 88, 2-Methyl-1'-(2-hydroxy-3-phenoxypropyl)spiro[2H-1,4-benzodioxepin-3(5H)4'-piperidine]hydrochloride]: in test [1] (Table III, 50 mg/kg PO), the “SHR mm Hg (decrease in mean arterial blood pressure)” value was -34 mm Hg. Moreover, the change in vivo at 20 mg/kg with mice (Table III, 20 mg/kg SC) is -99%.
In the case of `CNC(=O)N1CCC2(CC1)OCc1ccccc1OC2C` (centres unmarked) [Example 70, N,2-Dimethylspiro[2H-1,4-benzodioxepin-3(5H)4'-piperidine]-1'-carboxamide], in test [1] (Table III, 50 mg/kg PO), the “SHR mm Hg (decrease in mean arterial blood pressure)” value is -39 mm Hg. The change in vivo at 20 mg/kg in the test with mice (Table III, 20 mg/kg SC) is -35%.
